Starred links: 1 amine or outer side, 2 acyl side, 3 side chain; linkers in the order of their positions; H or OH if unused. Positions of bridges follow the written chain, without caps; N, C: chain ends. Non-standard residues stand in square brackets, D forms with d. Residues, ends and D or L forms follow the SMILES beside them. 2Pal(6-thiazolin-2-yl-4R-CO) = O=C([C@H](Cc1cccc(C2=N[C@H](C(=O)[*:3])CS2)n1)N[*:1])[*:2]
Target: Mcl-1
Assay: Binding of synthetic peptide to target protein by surface plasmon resonance (SPR, Biacore T200)
Conditions: 25° C., immobilized Mcl-1, Table 51, read-out: Binding evaluation result (KD)
Protocol: Preparation of Target Protein
A plasmid construct was prepared in which a gene containing the amino acid 1-172 portion of MCL-1 was introduced into plasmid pET28a, and a His6 tag, MBP, and a TEV protease recognition sequence were attached to the N terminal side thereof. This plasmid was transformed into E. coli strain BL21 (DE3) RIPL which was then cultured at 30° C. In a case where the O.D. reached 0.8, IPTG […] was added to induce large-scale expression, followed by culturing at 16° C. overnight. The recovered bacterial cells were suspended in Lysis Buffer A (25 mmol/L Tris (pH 7.5), 150 mmol/L NaCl), and then disrupted by sonication. This was followed by centrifugation at 15 krpm for 15 minutes. The supernatant after centrifugation was purified using a Ni-NTA resin (manufactured by QIAGEN GmbH). The sample adsorbed to the Ni-NTA resin was washed with Lysis Buffer A containing 15 mmol/L imidazole and then eluted with Lysis Buffer A containing 200 mmol/L imidazole. The sample was stored at −80° C. after substitution with Lysis buffer by dialysis.
Evaluation of Binding of Synthetic Peptide to Target Protein Using Surface Plasmon Resonance (SPR)
An SPR experiment for analyzing the interaction of a synthetic peptide with Mel-1 was carried out at 25° C. using Biacore T200 (manufactured by GE Healthcare Inc.). The synthetic peptide was added to the immobilized protein, and the interaction therebetween was evaluated.
A buffer obtained by adding dimethylformamide (DMF) or dimethylsulfoxide (DMSO) to a final concentration of 1 vol % to HBS-EP+ (manufactured by GE Healthcare Inc.) was used as a running buffer. Mcl-1 was immobilized on a Biacore Sensor Chip Series S Sensor Chip CM5 (manufactured by GE Healthcare Inc.) using an Amine Coupling Kit (manufactured by GE Healthcare Inc.). In order to measure the dissociation constant (KD), each synthetic peptide was added at multiple concentrations to obtain a sensorgram of binding to immobilized Mel-1.
The analysis of the obtained sensorgram was carried out using T200 evaluation software (manufactured by GE Healthcare Inc.). Solvent correction to DMF or DMSO was carried out, and then the KD was determined by equilibrium value analysis using a sensorgram obtained by subtracting the sensorgram to a flow cell in which Mcl-1 is not immobilized.
One having a KD of less than 50 μmol/L is denoted as A, and one having a KD of 50 μmol/L or more is denoted as B.
Binding of the synthetic peptide to the target protein was evaluated in the same manner as described above.

Structure (SMILES) | Kd
CC(C)C[C@@H]1NC(=O)[C@H](C)NC(=O)[C@H](Cc2ccccc2)NC(=O)[C@H](C)NC(=O)[C@@H]2CCCN2C(=O)[C@H](Cc2c[nH]c3ccccc23)NC(=O)[C@H](CC(C)C)NC(=O)[C@H](CS)NC(=O)[C@H](C)NC(=O)[C@H](Cc2c[nH]c3ccccc23)NC(=O)[C@@H]2CSC(=N2)c2cccc(n2)C[C@@H](C(N)=O)NC(=O)[C@H](CC(C)C)NC(=O)[C@H](Cc2c[nH]c3ccccc23)NC(=O)[C@H](CO)NC1=O [Cyclic peptide a-5-8] (WACLWPAFALSWL[2Pal(6-thiazolin-2-yl-4R-CO)]-NH2; lactam N-14) | ≥ 50 µM
CC(C)C[C@@H]1NC(=O)[C@H](C)NC(=O)[C@@H](Cc2ccccc2)NC(=O)[C@@H]2CSC(=N2)c2cccc(n2)C[C@@H](C(N)=O)NC(=O)[C@H](Cc2ccccc2)NC(=O)[C@H](C)NC(=O)[C@H](CC(C)C)NC(=O)[C@@H]2CCCN2C(=O)[C@@H](CC(C)C)NC(=O)[C@@H](Cc2ccccc2)NC(=O)[C@H](CCC(N)=O)NC(=O)[C@@H]2CCCN2C(=O)[C@@H](Cc2c[nH]c3ccccc23)NC(=O)[C@H](CC(C)C)NC1=O [Cyclic peptide a-5-3] ([dF]ALL[dW]PQ[dF][dL]PLAF[2Pal(6-thiazolin-2-yl-4R-CO)]-NH2; lactam N-14) | ≥ 50 µM

From patent US11319347B2, “Peptide compound and method for producing same, composition for screening use, and method for selecting peptide compound” (FUJIFILM Corporation, priority 2017, dated 2022)
